{"source": "patent US20130251697A1", "about": "“NOVEL NASAL SPRAY” (priority 2009, published 2013)", "origin": "cited, not measured here", "system": "SIRT1", "conditions": "life extending genes", "data": [{"smiles": "Oc1ccc(C=Cc2cc(O)cc(O)c2)cc1", "note": "[Resveratrol]", "values": [{"measurement": "increases genes SIRT1 expression", "value": "up to 13 fold"}]}]}
